Where two headings read alike, the source gives them in different places.
Experiments:
[1] = system: A549 (lung carcinoma); assay: A549 WST assay (cell growth / cell viability); type: cell-based, human; conditions: for IC50: Homo sapiens; for effect on cell growth and cell viability of A549: A549 in vitro, result in words
[2] = system: U87MG (glioblastoma); assay: U-87 MG WST assay (cell growth / cell viability); type: cell-based, human; conditions: for IC50: Homo sapiens; for effect on cell growth and cell viability of U87MG: U87MG in vitro, result in words
[3] = A549 (lung carcinoma), summary, FIG. 1 / Discussion, read-out: IC50, inhibition of growth in vitro of A549
[4] = first A549 WST assay, FIG. 2, read-out: IC50, first A549 WST assay
[5] = second A549 WST assay, FIG. 3, read-out: IC50, second A549 WST assay
[6] = U-87 MG, U87MG (glioblastoma), summary, FIG. 1 / Discussion, read-out: IC50, inhibition of growth in vitro of U87MG
[7] = first U-87 MG WST assay, FIG. 4, read-out: IC50, first U-87 MG WST assay
[8] = second U-87 MG WST assay, FIG. 5, read-out: IC50, second U-87 MG WST assay
[9] = listed as N-ethyl derivative of sanguinarine

| SMILES | IC50 [1, 3] | IC50 [1, 4] | IC50 [1, 5] | IC50 [2, 6] | IC50 [2, 7] | IC50 [2, 8] | melting point | effect on cell growth and cell viability of A549 [1] | effect on cell growth and cell viability of A549 [1, 9] | effect on cell growth and cell viability of U87MG [2] | effect on cell growth and cell viability of U87MG [2, 9] |
| --- | --- | --- | --- | --- | --- | --- | --- | --- | --- | --- | --- |
| c1c2c(cc3c1OCO3)-c1ncc3c4c(ccc3c1CC2)OCO4 [Compound 14, 11,12-Dihydro-2,3,7,8-bismethylenedioxybenzo[c]phenanthridine] | > 10000 nM | > 10000 nM | > 10000 nM | > 10000 nM | > 10000 nM | > 10000 nM | 246 to 247 °C | – | – | – | – |
| c1cc2c(cnc3c4cc5c(cc4ccc23)OCO5)c2c1OCO2 [Compound 15, 2,3,7,8-bismethylene-dioxybenzo[c]-phenanthridine] | > 10000 nM | > 10000 nM | > 10000 nM | > 10000 nM | > 10000 nM | > 10000 nM | 270 to 272 °C | – | – | – | – |
| CC[n+]1cc2c3c(ccc2c2ccc4cc5c(cc4c21)OCO5)OCO3.[Cl-] [Compound 17, N-Ethyl Derivative of Sanguinarine] | ~1600 nM | ~1600 nM | ~1600 nM | ~3300 nM | ~3300 nM | ~3300 nM | 258 to 259 °C | inhibits cell growth and reduces cell viability | inhibited cell growth | inhibits cell growth and reduces cell viability | inhibited cell growth |
| CC[C@@]1(O)C(=O)OCc2c1cc1n(c2=O)Cc2cc3c(CN(C)C)c(O)ccc3nc2-1 [Topotecan, reference compound] | 200 nM | ~200 nM | ~200 nM | 300 nM | ~300 nM | ~300 nM | – | – | – | – | – |
| C[n+]1cc2c3c(ccc2c2ccc4cc5c(cc4c21)OCO5)OCO3 [sanguinarine, 13-methyl-[1,3]benzodioxolo[5,6-c]-1,3-dioxolo[4,5-i]phenanthridinium, reference compound] | 800 nM | 800 nM | 800 nM | 2000 nM | 2000 nM | 2000 nM | – | – | – | – | – |

From US20160009727A1, “SA[…] PP2C INHIBITORS FOR CANCER TREATMENT” (Lixte Biotechnology, Inc., priority 2013, published 2016)
